We go through two compounds from patent US10947233B2, “Crystals of azabicyclic compound” (TAIHO PHARMACEUTICAL CO., LTD., priority 2015, dated 2021).

Data set [1] in a line: Blood concentration measurement test (oral administration to mice). As to conditions: 50 mg/10 mL/kg; for AUC0-24 hr: mice (Balb/cA) under feeding conditions, Compound 1 in plasma, LC-MS/MS. The format is in vivo, mice (Balb/cA). As for the experimental part:
Respective solutions for administration (50 mg/10 mL/kg) of the Form I crystal and Form II crystal were produced. These solutions were administered orally to mice (Balb/cA) bred under feeding conditions at a volume of 10 mL/kg body weight using a sonde for oral administration. After the administration, the mice were returned to cages for mice to inspect their conditions. Water and feed were freely available for the mice in the cages. The mice were anesthetized with isoflurane 1, 2, 3, 4, 8 and 24 hours after the administration and 60 μL of blood was collected from their orbital sinuses using capillary blood collection tubes. The collected blood was cooled on ice and centrifuged to separate plasma.
AUCs0-24 hrwere calculated with a linear-log trapezoid method using Phoenix WinNonlin (v6.3.0), software from Pharsight, from the concentrations of Compound 1 in plasma samples measured with Multiple Reaction Monitoring method using LC-MS/MS.
Therefore, the Form II crystal according to the present invention is remarkably excellent in oral absorbability and useful as an oral pharmaceutical composition.

A short description of data set [2]: Solid stability test (accelerated test), related substances by HPLC. Type of data set: physicochemical. As for the experimental part:
The solid stability of the Form II crystal obtained in Example 1 after storage of 1, 3 and 6 months at 40° C.±2° C./75% RH±5% RH was measured under the following conditions. • Storage conditions: 40° C.±2° C./75% RH±5% RH • Measurement points: 1, 3 and 6 month • Storage amount: 6 g • Storage container: doubled plastic bags, banding bands+plastic drums • Preparation method of sample solution: 100 mg of the Form II crystal is accurately measured, a mixed solution of acetonitrile-water (4:1) is added to dissolve the crystal (sonicated to dissolve, if difficult to dissolve), and the solution is diluted in measuring cylinder to exact 200 mL total. 10 mL of this solution is accurately measured, and a mixed solution of acetonitrile-water (1:1) is added to exact 20 mL to be used as a sample solution.
HPLC was performed in the following conditions. • Column: general foundation Chemicals Evaluation and Research Institute, Japan L-column2 ODS • Particle size: 3 μm, Inner diameter: 4.6 mm, Length: 15 cm • Measurement wavelength: 220 nm • Mobile phase: Mobile phase A: 10 mmol/L phosphate buffer (pH6.9), • Mobile phase B: acetonitrile • Flow rate: about 1.0 mL/min
The concentration gradient is controlled by changing the mixing ratio of mobile phases A and B as follows, when feeding the liquid.
The amounts of related substances in the sample solutions were measured and evaluated by HPLC, of which result is shown in Table 3.
The related substances are defined as substances detected other than 3-ethyl-4-{3-isopropyl-4-(4-(1-methyl-1H-pyrazol-4-yl)-1H-imidazol-1-yl)-1H-pyrazolo[3,4-b]pyridin-1-yl}benzamide.

`CCc1cc(C(N)=O)ccc1-n1nc(C(C)C)c2c(-n3cnc(-c4cnn(C)c4)c3)ccnc21` [Form I crystal, 3-ethyl-4-{3-isopropyl-4-(4-(1-methyl-1H-pyrazol-4-yl)-1H-imidazol-1-yl)-1H-pyrazolo[3,4-b]pyridin-1-yl}benzamide]: the AUC0-24 hr in data set [1] amounted to 59.64 µM·h.

On to `CCc1cc(C(N)=O)ccc1-n1nc(C(C)C)c2c(-n3cnc(-c4cnn(C)c4)c3)ccnc21` [Form II crystal, 3-ethyl-4-{3-isopropyl-4-(4-(1-methyl-1H-pyrazol-4-yl)-1H-imidazol-1-yl)-1H-pyrazolo[3,4-b]pyridin-1-yl}benzamide], for which the “AUC0-24 hr of the Form II crystal relative to the Form I crystal” value in data set [1] (mice (Balb/cA)) is given as “approximately 3 times”. In data set [1], this compound yielded an AUC0-24 hr of 171.33 µM·h. Further, the Related substances entry in data set [2] (storage 1 month at 40° C.±2° C./75% RH±5% RH), in data set [2] (storage 3 months at 40° C.±2° C./75% RH±5% RH) and in data set [2] (storage 6 months at 40° C.±2° C./75% RH±5% RH) was “less than 0.1%” in each case.
